Measured values from EP4818185A1, “CRYSTAL FORMS OF 20(S)-PROTOPANAXADIOL, PREPARATION METHOD THEREFOR AND USE THEREOF” (Shanghai Baocheng Tailai Technology Co., Ltd., priority 2023, dated 2025).
Values after ≈ are worked out from the molar mass of the structure shown. Values joined by “and” are separate entries in the source; they are usually repeats but may differ in a detail not shown here. Equal values may be shown once.

Experiments:
[1] = Solid-state stability test (XRPD crystal form, HPLC purity); format: physicochemical; settings: for crystal form transformation (XRPD): under three conditions: 80°C sealed 1 day, 25°C/60% RH and 40°C/75% RH open 1 month
Protocol: An appropriate amount of each test sample was weighed, and subjected to stability tests under the following conditions: sealed storage at 80°C for 1 day, and open storage at 25°C/60% RH and 40°C/75% RH for 1 month, respectively. Solid samples separated under different conditions were subjected to XRPD to measure crystal form to evaluate physical stability, and HPLC to measure chemical purity to evaluate chemical stability. […]

[2] = Bulk density and tap density test; format: physicochemical; settings: for Average bulk density / Average tap density: average of three parallel tests; for Average tap density: tapped 200 times; for Bulk density: single tests No. 1-3, approx. 800 mg in 5 mL graduated cylinder; for Tap density: single tests No. 1-3, tapped 200 times
Protocol: Approximately 800 mg of each test sample was taken, and added into a 5 mL graduated cylinder, respectively, and the volume at this point was recorded. The graduated cylinder was lightly tapped against the tabletop 200 times, and the volume at this point was recorded. Three parallel tests were performed.

[3] = Mechanical stability test (grinding, tableting); format: physicochemical; settings: for crystal form after grinding: manually ground in agate mortar for about 3 minutes; for crystal form after tableting / crystallinity degree after tableting: tableting under a pressure of 200 MPa
Protocol: An appropriate amount of each test sample was taken, placed respectively in an agate mortar, and manually ground for about 3 minutes, then, the crystal form was measured.
An appropriate amount of each test sample was taken, and added respectively into a tablet press. The crystal form was measured after tableting under a pressure of 200 MPa.

[4] = Hygroscopicity test (dynamic vapor sorption, DVS); format: physicochemical; settings: for Hygroscopic weight gain at 25°C/80% RH (%): DVS; for hygroscopicity: class per Chinese Pharmacopoeia 2020 edition definition
Protocol: The dynamic vapor sorption-desorption (DVS) curves of each sample were tested and plotted, respectively, and the experimental results are shown in table 5, wherein, the DVS profile of the crystal form A in Example 2 is shown in figure 7, the DVS profile of the crystal form B in Example 5 is shown in figure 8, and the DVS profile of the crude 20(S)-protopanaxadiol in Example 1 is shown in figure 9.
Regarding the description of hygroscopicity characteristics and the definition of hygroscopic weight gain (Guidelines for Hygroscopicity Test of Drugs, Chinese Pharmacopoeia 2020 Edition): • Deliquescent: Absorbing sufficient moisture to form a liquid • Highly hygroscopic: Hygroscopic weight gain of not less than 15% • Hygroscopic: Hygroscopic weight gain of less than 15% but not less than 2% • Slightly hygroscopic: Hygroscopic weight gain of less than 2% but not less than 0.2% • Non-hygroscopic or almost non-hygroscopic: Hygroscopic weight gain of less than 0.2%.

[5] = physchem
Protocol: (§1) 50 mg of each test sample was weighed, and a suspension was prepared using 5.0 mL of purified water, pH 1 buffer, SGF (simulated gastric fluid), FaSSIF (fasted state simulated intestinal fluid), and FeSSIF (fed state simulated intestinal fluid), respectively. After equilibration at 37°C for 1 hour, 2 hours, 4 hours, and 24 hours, filtration was performed to obtain clear solutions. The content of the sample in the saturated solution was measured by HPLC.

[6] = Solubility test (suspension equilibrated at 37°C, content by HPLC); settings: for Solubility, FaSSIF: FaSSIF (fasted state simulated intestinal fluid); for Solubility, FaSSIF / Solubility, SGF: 37°C; for Solubility, SGF: SGF (simulated gastric fluid); for 24-hour solubility relative to LOQ: purified water and pH 1 buffer medium
Protocol: as §1

[7] = Repose angle test (funnel, cone); format: physicochemical; settings: for Average repose angle (°): average of three parallel tests; for Repose angle (°): single tests No. 1-3, calculated from cone height and diameter
Protocol: An appropriate amount of each test sample was taken. A funnel was fixed on an iron stand and positioned perpendicularly to the tabletop. The crystal form A and crystal form B samples were added into the funnel, respectively, allowing the sample to freely fall to form a cone. The height and diameter of the cone were measured to calculate the repose angle. Three parallel tests were performed. […]

[8] = Initial (baseline of stability test)

CC(C)=CCC[C@](C)(O)[C@H]1CC[C@]2(C)[C@@H]1[C@H](O)C[C@@H]1[C@@]3(C)CC[C@H](O)C(C)(C)[C@@H]3CC[C@]12C [Crystal form D, 20(S)-protopanaxadiol]
Crystal form change ([1]; 25°C/60% RH/open/1 month): No | Purity (area%) ([1]; 25°C/60% RH/open/1 month): 93.75 area% | Crystal form change ([1]; 40°C/75% RH/open/1 month): No | Purity (area%) ([1]; 40°C/75% RH/open/1 month): 93.00 area% | Crystal form change ([1]; 80°C/sealed/1 day): No | Purity (area%) ([1]; 80°C/sealed/1 day): 94.04 area% | Purity (area%) [1, 8]: 96.01 area% | chemical purity (HPLC) after storage ([1]; open storage at 25°C/60% RH and 40°C/75% RH for 1 month): slightly decreased | purity (HPLC) after storage ([1]; sealed storage at 80°C for 1 day): slightly decreased | crystal form transformation (XRPD) [1]: did not undergo crystal form transformation | Average bulk density [2]: 0.14 g/mL | Average tap density [2]: 0.21 g/mL | Bulk density [2]: 0.14 g/mL | Tap density [2]: 0.21 g/mL and 0.20 g/mL | crystal form after grinding [3]: transformed into amorphous form | crystal form after tableting [3]: did not undergo crystal form transformation | crystallinity degree after tableting [3]: decreased | Hygroscopic weight gain at 25°C/80% RH (%) [4]: 0.3863% | Crystal form change after DVS test [4]: Unchanged | hygroscopicity [4]: slight hygroscopicity | solubility at 2 h ([5]; water): 0.13 µg/mL (≈ 0.282 µM) | Solubility, FaSSIF ([6]; 1 hour, 60 min): 110 µg/mL (≈ 239 µM) | Solubility, FaSSIF ([6]; 2 hours, 120 min): 72 µg/mL (≈ 156 µM) | Solubility, FaSSIF ([6]; 4 hours, 240 min): 82 µg/mL (≈ 178 µM) | Solubility, FaSSIF ([6]; 24 hours, 1440 min): 100 µg/mL (≈ 217 µM) | solubility in SGF, comparison among crystal forms [6]: no significant difference | Solubility, SGF ([6]; 1 hour, 60 min): 21 µg/mL (≈ 45.6 µM) | Solubility, SGF ([6]; 2 hours, 120 min): 17 µg/mL (≈ 36.9 µM) | Solubility, SGF ([6]; 4 hours, 240 min): 16 µg/mL (≈ 34.7 µM) | Solubility, SGF ([6]; 24 hours, 1440 min): 14 µg/mL (≈ 30.4 µM) | solubility in FaSSIF, comparison with crystal form B [6]: higher than that of the crystal form B | 24-hour solubility relative to LOQ ([6]; 24 hours): lower than LOQ | Average repose angle (°) [7]: 36.8 ° | Repose angle (°) [7]: 36.7 ° and 38.2 ° and 35.5 °

CC(C)=CCC[C@](C)(O)[C@H]1CC[C@]2(C)[C@@H]1[C@H](O)C[C@@H]1[C@@]3(C)CC[C@H](O)C(C)(C)[C@@H]3CC[C@]12C [Crystal form A, 20(S)-protopanaxadiol]
Crystal form change ([1]; 25°C/60% RH/open/1 month): No | Purity (area%) ([1]; 25°C/60% RH/open/1 month): 97.20 area% | Crystal form change ([1]; 40°C/75% RH/open/1 month): No | Purity (area%) ([1]; 40°C/75% RH/open/1 month): 97.18 area% | Crystal form change ([1]; 80°C/sealed/1 day): No | Purity (area%) ([1]; 80°C/sealed/1 day): 97.20 area% | Purity (area%) [1, 8]: 97.21 area% | chemical purity (HPLC) after storage ([1]; under three conditions): did not show a significant decrease | crystal form transformation (XRPD) [1]: did not undergo crystal form transformation | Average bulk density [2]: 0.43 g/mL | Average tap density [2]: 0.52 g/mL | Bulk density [2]: 0.44 g/mL and 0.46 g/mL and 0.40 g/mL | Tap density [2]: 0.48 g/mL and 0.56 g/mL and 0.51 g/mL | crystal form after grinding [3]: transformed into amorphous form | crystal form after tableting [3]: did not undergo crystal form transformation | Hygroscopic weight gain at 25°C/80% RH (%) [4]: 0.5763% | Crystal form change after DVS test [4]: Unchanged | hygroscopicity [4]: slight hygroscopicity | solubility at 2 h ([5]; fassif): 73 µg/mL (≈ 158 µM) | solubility at 4 h ([5]; fassif): 72 µg/mL (≈ 156 µM) | solubility at 4 h ([5]; ph 1 buffer, pH 1): 0.11 µg/mL (≈ 0.239 µM) | solubility at 24 h ([5]; ph 1 buffer, pH 1): 0.15 µg/mL (≈ 0.326 µM) | solubility at 1 h ([5]; sgf (simulated gastric fluid)): 20 µg/mL (≈ 43.4 µM) | solubility at 2 h ([5]; sgf (simulated gastric fluid)): 21 µg/mL (≈ 45.6 µM) | solubility at 4 h ([5]; sgf (simulated gastric fluid)): 17 µg/mL (≈ 36.9 µM) | solubility at 24 h ([5]; sgf (simulated gastric fluid)): 11 µg/mL (≈ 23.9 µM) | solubility at 24 h ([5]; water): 0.13 µg/mL (≈ 0.282 µM) | solubility at 24 h ([5]; water and ph 1 buffer, pH 1): 0.13 to 0.15 µg/mL (≈ 0.282 to 0.326 µM) | Solubility, FaSSIF ([6]; 1 hour, 60 min): 70 µg/mL (≈ 152 µM) | Solubility, FaSSIF ([6]; 24 hours, 1440 min): 120 µg/mL (≈ 260 µM) | solubility in SGF, comparison among crystal forms [6]: no significant difference | solubility in FaSSIF, comparison with crystal form B [6]: higher than that of the crystal form B | Average repose angle (°) [7]: 20.5 ° | Repose angle (°) [7]: 21.2 ° and 19.0 ° and 21.4 °

CC(C)=CCC[C@](C)(O)[C@H]1CC[C@]2(C)[C@@H]1[C@H](O)C[C@@H]1[C@@]3(C)CC[C@H](O)C(C)(C)[C@@H]3CC[C@]12C [Crystal form B, 20(S)-protopanaxadiol]
Crystal form change ([1]; 25°C/60% RH/open/1 month): No | Purity (area%) ([1]; 25°C/60% RH/open/1 month): 97.17 area% | Crystal form change ([1]; 40°C/75% RH/open/1 month): No | Purity (area%) ([1]; 40°C/75% RH/open/1 month): 97.15 area% | Crystal form change ([1]; 80°C/sealed/1 day): No | Purity (area%) ([1]; 80°C/sealed/1 day): 97.18 area% | Purity (area%) [1, 8]: 97.20 area% | chemical purity (HPLC) after storage ([1]; under three conditions): did not show a significant decrease | crystal form transformation (XRPD) [1]: did not undergo crystal form transformation | Average bulk density [2]: 0.21 g/mL | Average tap density [2]: 0.25 g/mL | Bulk density [2]: 0.22 g/mL and 0.21 g/mL | Tap density [2]: 0.25 g/mL and 0.24 g/mL and 0.26 g/mL | crystal form after grinding [3]: transformed into amorphous form | crystal form after tableting [3]: did not undergo crystal form transformation | crystallinity degree after tableting [3]: decreased | Hygroscopic weight gain at 25°C/80% RH (%) [4]: 0.2227% | Crystal form change after DVS test [4]: Unchanged | hygroscopicity [4]: slight hygroscopicity | Solubility, FaSSIF ([6]; 1 hour, 60 min): 34 µg/mL (≈ 73.8 µM) | Solubility, FaSSIF ([6]; 2 hours, 120 min): 39 µg/mL (≈ 84.6 µM) | Solubility, FaSSIF ([6]; 4 hours, 240 min): 42 µg/mL (≈ 91.2 µM) | Solubility, FaSSIF ([6]; 24 hours, 1440 min): 42 µg/mL (≈ 91.2 µM) | solubility in SGF, comparison among crystal forms [6]: no significant difference | Solubility, SGF ([6]; 1 hour, 60 min): 18 µg/mL (≈ 39.1 µM) | Solubility, SGF ([6]; 2 hours, 120 min): 19 µg/mL (≈ 41.2 µM) | Solubility, SGF ([6]; 4 hours, 240 min): 18 µg/mL (≈ 39.1 µM) | Solubility, SGF ([6]; 24 hours, 1440 min): 16 µg/mL (≈ 34.7 µM) | 24-hour solubility relative to LOQ ([6]; 24 hours): lower than LOQ | Average repose angle (°) [7]: 24.2 ° | Repose angle (°) [7]: 25.0 ° and 24.7 ° and 22.8 °
